“Also recorded” adds a separate entry of the source. Where two headings read alike, the source gives them in different places.
Legend:
[1] = tested on: carrageenan-induced paw edema; assay: Carrageenan-induced paw edema; type: in vivo, CD mice; conditions: FIG. 17; 10, 15, 20 mg/kg iv injection
Procedure: FIG. 17 compares the anti-inflammatory effect of Compound (D), acetylsalicylic acid (aspirin), and LIDEX against carrageenan-induced paw edema in CD mice. […] The first vertical bar in each set is the control. The second vertical bar in each set is acetylsalicylic acid (200 mg/kg, oral). The third vertical bar in each set is LIDEX cream administered locally, the fourth vertical bar in each set is Compound (D) (10 mg/kg iv injection), the fifth vertical bar in each set is Compound (D) (15 mg/kg iv injection), and the sixth vertical bar in each set is Compound (D) (20 mg/kg iv injection). 1% Carrageenan (20 μL, i.m., injected directly into the paw of CD mice to produce paw edema) was administered at time=0. Compound (D) was administered at 24 hours prior to the carrageenan injection, 1 hour prior to the carrageenan injection, and 6 hours after the carrageenan injection. Acetylsalicylic acid was administered at 1 hour prior to the carrageenan injection, and 6 hours after the carrageenan injection. LIDEX cream was administered at 1 hour prior to the carrageenan injection, and 6 hours after the carrageenan injection. * means P<0.05 and ** means P<0.01.
The comparisons are made by comparing the volumes of the inflamed pedis area (induced by a injection of a 1% carageenan solution) at different time points after the initial carageenan injection. […]

HCT-116 colon carcinoma = assay: Cytotoxicity against solid tumor cells, CCK-8, 72 hrs (Table 4); type: cell-based; conditions: Homo sapiens
Procedure: (§1) Compounds are also evaluated against A-549 lung carcinoma and SK-OV-3 ovarian adenocarcinoma cell lines using the methodology as for Table 3. The potency order for the compounds may vary in different tumor cell lines. […] Absorbance was measured using a Powerwave XS microplate spectrophotometer.

MX-1 mammary carcinoma = assay: as above; type: cell-based; conditions: Homo sapiens
Procedure: as §1

[2] = tested on: human colon carcinoma HCT-116 xenografts; conditions: mouse, in vivo
[3] = tested on: human mammary carcinoma MX-1 cells; assay: In vitro drug combination (median-effect / combination index, DRI) against MX-1 cell growth (Tables 5, 5A); type: cell-based
Procedure: The data in Tables 2X, 3A-E, 4, 5, and 6 were obtained using the cell counting kit-8 (CCK-8) tetrazolium assay in a 96-well microplate. Five to seven concentrations of each compound in triplicate were used, and the IC50 values were determined by CompuSyn software automation (Chou T C. and Martin N. ComboSyn, Inc., 2006) based on the median-effect equation and plot (Chou T C. J. Theor. Biol. 59:235-276, 1976; Chou T C. Pharmacol. Rev. 58: 621-681, 2006). […] The r value defines the correlation coefficient of the median-effect plot which signifies the conformity to the mass-action law principle (Chou T C. J. Theor. Biol. 59:235-276, 1976; Chou T C. Pharmacol. Rev. 58:621-681, 2006). These parameters were determined by CompuSyn simulation (available at http://www.combosyn.com).
Efficacy of panaxytriol in combination with Fludelone (an illustrative tubulin-binding anticancer agent) was measured according to procedures described in more detail by Chou et al. (1984) Adv. Enz. Regul., 22:27-55, Chou et al. (1994) Nat'l Cancer Inst., 86:1517-1524, and Chou (2006) Pharmacological Reviews, […]:621-681. Software packages used for data analyses were CalcuSyn for Windows (Chou and Hayball., Multiple-drug dose effect analyzer and manual, Biosoft, Cambridge Place, Cambridge, U.K (1996)) and CompuSyn for Drug Combinations (Chou and Martin, Software for determination of synergism and antagonism and determination of IC50, ED50 and LD50, ComboSyn Inc., Paramus, N.J. (2005)). The entire contents of each of the above references are incorporated by reference in their entireties. […] DRI quantitates synergy as how many fold less of a dose is required to obtain a given level of effect for a combination of drugs versus the same effect for an individual component of the combination.

[4] = tested on: human lymphoblastic leukemic T-cell growth; assay: Cytotoxic activity relative to stability during storage at −20° C. in DMSO (Table 10); type: cell-based; conditions: Homo sapiens, CCRF-CEM, 72 h, XTT, 72 hr
[5] = tested on: Rat pheochromocytoma cells (PC12 cells); assay: Neurite outgrowth with NGF; type: cell-based; conditions: 50 ng/mL NGF, 60 μM panaxytriol, 96 hr, vs NGF only
Procedure: Rat pheochromocytoma cells (PC12 cells) were treated with 50 ng/mL of nerve growth factor (NGF) and with 60 μM panaxytriol for 96 hr. The cells were then compared with a similarly prepared control, lacking panaxytriol. […] This finding confirms that panaxytriol is useful for treating or preventing a neurotrophic disorder.

[6] = Table 5, fold dose reduction allowed in the Panaxytriol + Fludelone combination

Row | SMILES | anti-inflammatory effect [1] | IC50 (HCT-116 colon carcinoma) [µM] | IC50 (MX-1 mammary carcinoma) [µM] | effect of co-administration on iso-oxazole-fludelone toxicity (body weight) [2] | body weight retention during Isodehydelone treatment ([2]; po) | IC50 ([3]; Homo sapiens, MX1, 72 h, read-out: Dose-effect parameter Dm (IC50)) [µM] | Dose-Reduction Index (DRI) at IC50 [3, 6] | Dose-Reduction Index (DRI) at IC75 [3, 6] | Dose-Reduction Index (DRI) at IC90 [3, 6] | Dose-Reduction Index (DRI) at IC95 [3, 6] | dose-reduction index (DRI) ([3]; panaxytriol + Fludelone combination, MX-1 cells) | IC50 ([4]; read-out: IC50 in μM CCRF-CEM, Table 10, Aug. 22, 2003 (Stored), same solution kept at −20° C. in DMSO) [µM] | IC50 ([4]; read-out: IC50 in μM CCRF-CEM, Table 10, Jul. 25, 2003 (Fresh)) [µM] | IC50 ([4]; read-out: IC50 in μM CCRF-CEM/VBL, Table 10, Aug. 22, 2003 (Stored), same solution kept at −20° C. in DMSO) [µM] | IC50 ([4]; read-out: IC50 in μM CCRF-CEM/VBL, Table 10, Jul. 25, 2003 (Fresh)) [µM] | neurite outgrowth [5]
1 | C=C[C@H](O)C#CC#CC[C@H]1OC(C)(C)O[C@@H]1CCCCCCC [Compound (D)] | mild, slow on-set, anti-inflammatory effect | 0.617 | 5.32 | significantly reduces iso-oxazole-fludelone toxicity | retained their body weight significantly better | – | – | – | – | – | – | – | – | – | – | –
2 | C=C[C@@H](O)C#CC#CC[C@@H](O)[C@H](O)CCCCCCC [panaxytriol] | – | – | – | – | – | 3.19 | 2.66 | 2.12 | 1.70 | 1.46 | 1.46-2.7 | 11 | 6.34 | 19.4 | 4.71 ± 0.73 | enhanced neurite outgrowth; also recorded: significant neurite outgrowth

From patent publication US8859615B2, “Compounds, compositions and methods for reducing toxicity and treating or preventing diseases” (priority 2008, dated 2014)
